The results in this text go back to patent US12612368B2 (Remedy Plan, Inc., priority 2019, dated 2026).

Molecules are shown by their SMILES. Where two headings read alike, the source gives them in different places.

Usually IC50 stands for the concentration at which inhibition is half-maximal.

One assay concerns the target T1, NAMPT (Homo sapiens, UniProt P43490).
T1 construct: purchased Abcam ab221819
Briefly: NAMPT Activity Assay (Abcam #ab221819). It counts as biochemical. The note with it: purified NAMPT, two-step reaction, OD450 nm; percent inhibition vs no drug; compound concentration not stated.

The next assay concerns MV-4-11 cells. Briefly: Cell viability in MV-4-11 cells (CellTiter Glo2). The class given is cell-based. The note with it: Homo sapiens, MV4-11, 96 h, 8-point dose response, 4 days. (In general: ATP-based viability assays read luminescence as a measure of living cells.)
Setting [1] is: CellTiter Glo2 (Table E2), read-out: MV-4-11 Cell Viability, MV-4-11 IC50.
[2] abbreviates: CellTiter Glo2 (Table E1), read-out: MV-4-11 IC50.

T1 sequence (P43490 whole entry): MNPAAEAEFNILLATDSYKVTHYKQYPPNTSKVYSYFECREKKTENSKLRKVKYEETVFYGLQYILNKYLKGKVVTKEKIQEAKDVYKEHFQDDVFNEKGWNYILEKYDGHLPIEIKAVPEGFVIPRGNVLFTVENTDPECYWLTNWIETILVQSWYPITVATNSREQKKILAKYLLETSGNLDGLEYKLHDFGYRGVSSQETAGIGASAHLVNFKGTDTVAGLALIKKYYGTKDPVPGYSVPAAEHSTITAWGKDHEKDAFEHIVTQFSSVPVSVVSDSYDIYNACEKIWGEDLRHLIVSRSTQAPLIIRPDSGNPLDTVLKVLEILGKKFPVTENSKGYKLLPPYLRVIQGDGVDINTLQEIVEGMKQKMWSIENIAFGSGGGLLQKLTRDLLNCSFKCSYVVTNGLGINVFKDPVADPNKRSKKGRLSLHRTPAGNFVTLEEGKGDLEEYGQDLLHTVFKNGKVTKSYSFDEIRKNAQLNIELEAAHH
Method for MV-4-11 cells: Approximately 10,000 MV-4-11 cells per well of a 96-well plate were treated with DMSO (no drug control) or each compound in Tables E1 and E2 in an 8-point dose response for 4 days, Cell viability was measured using CellTiter Glo2. The ICse of each compound was determined using CDD Vault.

For `CC(=O)Nc1ccc(-c2ccc(C(=O)N(C)Cc3cccnc3C)cn2)cc1C#N` [Compound I-483, 6-(4-Acetamido-3-cyano-phenyl)-N-methyl-N-[(2-methyl-3-pyridyl)methyl]pyridine-3-carboxamide], at NAMPT, the “NAMPT Inhibition Code” value is listed as “A (A = <33% inhibition)”. Moreover, the half-inhibitory concentration (IC50) in the assay on MV-4-11 cells (setting [1]) is more than 30000 nM.

On to `CCCCN(C(C)=O)c1ccc(-c2ccc(C(=O)NCc3cccnc3)cn2)cc1` [Compound I-411, 6-[4-[acetyl(butyl)amino]phenyl]-N-(3-pyridylmethyl)pyridine-3-carboxamide], for which, on NAMPT, the “NAMPT Inhibition Code” value is “B (B = ≥33 to <66% inhibition)”. Also, the half-maximal inhibitory concentration (IC50) in the assay with MV-4-11 cells (setting [2]) amounted to 125 nM.

As for `CC(=O)N(CCC(F)F)c1ccc(-c2ccc(C(=O)NCc3cccnc3)cn2)cc1C` [Compound I-639, 6-[4-[Acetyl(3,3-difluoropropyl)amino]-3-methyl-phenyl]-N-(3-pyridylmethyl)pyridine-3-carboxamide], the “NAMPT Inhibition Code” value at NAMPT is recorded as “B (B = ≥33 to <66% inhibition)”. In the assay on MV-4-11 cells (setting [1]), the IC50 was 133 nM.

As to `CC(=O)N(CC1CC1)c1ccc(-c2ccc(C(=O)NCc3ccncc3)cn2)cc1Cl` [Compound I-676, 6-[4-[Acetyl(cyclopropylmethyl)amino]-3-chloro-phenyl]-N-(4-pyridylmethyl)pyridine-3-carboxamide], on NAMPT, the “NAMPT Inhibition Code” value is recorded as “A (A = <33% inhibition)”. In addition, the IC50 with MV-4-11 cells (setting [1]) was more than 997 nM.

As for `CCC(=O)N(CCN)c1ccc(-c2ccc(C(=O)NCc3cccnc3)cn2)cc1C` [Compound I-502, 6-[4-[2-aminoethyl(propanoyl)amino]-3-methyl-phenyl]-N-(3-pyridylmethyl)pyridine-3-carboxamide], at NAMPT, the “NAMPT Inhibition Code” value was “A (A = <33% inhibition)”. Besides, the half-maximal inhibitory concentration (IC50) with MV-4-11 cells (setting [1]) was 224 nM.

For `CC(=O)N(CC1CC1)c1ccc(-c2ccc(C(=O)NCc3cncc(F)c3)cn2)cc1Cl` [Compound I-690, 6-[4-[Acetyl(cyclopropylmethyl)amino]-3-chloro-phenyl]-N-[(5-fluoro-3-pyridyl)methyl]pyridine-3-carboxamide], the “NAMPT Inhibition Code” value on NAMPT is given as “C (C = ≥66% inhibition)”. In addition, in the assay on MV-4-11 cells (setting [1]), the IC50 worked out at 336 nM.

With `CCC(=O)N(C)c1ccc(-c2ccc(C(=O)N(C)Cc3cccnc3)cn2)cc1C` [Compound I-496, N-methyl-6-[3-methyl-4-[methyl(propanoyl)amino]phenyl]-N-(3-pyridylmethyl)pyridine-3-carboxamide], the “NAMPT Inhibition Code” value at NAMPT is “A (A = <33% inhibition)”. Moreover, the half-maximal inhibitory concentration (IC50) with MV-4-11 cells (setting [1]) is more than 15800 nM.

On to `CC(=O)N(CCC(F)(F)F)c1ccc(-c2ccc(C(=O)NCc3cccnc3)cn2)cc1Cl` [Compound I-604, 6-[4-[Acetyl(3,3,3-trifluoropropyl)amino]-3-chloro-phenyl]-N-(3-pyridylmethyl)pyridine-3-carboxamide], for which the “NAMPT Inhibition Code” value at NAMPT was “B (B = ≥33 to <66% inhibition)”. The IC50 in the assay with MV-4-11 cells (setting [1]) amounted to 33 nM.

With `CC(=O)N(CC1CC1)c1ccc(-c2ccc(C(=O)NCc3cccnc3)cn2)cc1C` [Compound I-609, 6-[4-[Acetyl(cyclopropylmethyl)amino]-3-methyl-phenyl]-N-(3-pyridylmethyl)pyridine-3-carboxamide], the “NAMPT Inhibition Code” value on NAMPT is “C (C = ≥66% inhibition)”. Also, in the assay with MV-4-11 cells (setting [1]), the concentration for half-maximal inhibition (IC50) was 13.5 nM.

As for `CC(C)N(C(=O)C(F)F)c1ccc(-c2ccc(C(=O)NCc3cccnc3)cn2)cc1Cl` [Compound I-611, 6-[3-chloro-4-[(2,2-difluoroacetyl)-isopropyl-amino]phenyl]-N-(3-pyridylmethyl)pyridine-3-carboxamide], the “NAMPT Inhibition Code” value at NAMPT is on record as “C (C = ≥66% inhibition)”. The IC50 in the assay with MV-4-11 cells (setting [1]) stood at 3.01 nM.

Regarding `CC(=O)N(CC1CC1)c1ccc(-c2ccc(C(=O)Nc3cnc4[nH]ncc4c3)cn2)cc1Cl` [Compound I-693, 6-[4-[Acetyl(cyclopropylmethyl)amino]-3-chloro-phenyl]-N-(1H-pyrazolo[3,4-b]pyridin-5-yl)pyridine-3-carboxamide], the “NAMPT Inhibition Code” value at NAMPT is “B (B = ≥33 to <66% inhibition)”.

In the case of `CC(=O)N(C)c1ccc(-c2ccc(C(=O)NCc3cccnc3)cn2)cc1C#N` [Compound I-663, 6-[4-[Acetyl(methyl)amino]-3-cyano-phenyl]-N-(3-pyridylmethyl)pyridine-3-carboxamide], the “NAMPT Inhibition Code” value at NAMPT is given as “B (B = ≥33 to <66% inhibition)”. The IC50 in the assay on MV-4-11 cells (setting [1]) amounted to 1700 nM.

Consider `CC(=O)N(CC1CC1)c1ccc(-c2ccc(C(=O)NCc3ccc(C)nc3C)cn2)cc1C` [Compound I-489, 6-[4-[Acetyl(cyclopropylmethyl)amino]-3-methyl-phenyl]-N-[(2,6-dimethyl-3-pyridyl)methyl]pyridine-3-carboxamide], for which, on NAMPT, the “NAMPT Inhibition Code” value was “A (A = <33% inhibition)”. The IC50 in the assay with MV-4-11 cells (setting [1]) was determined as 2220 nM.

As to `CC(=O)N(c1ccc(-c2ccc(C(=O)NCc3cccnc3)cn2)cc1F)C(C)C` [Compound I-626, 6-[4-[Acetyl(isopropyl)amino]-3-fluoro-phenyl]-N-(3-pyridylmethyl)pyridine-3-carboxamide], the “NAMPT Inhibition Code” value at NAMPT is reported as “C (C = ≥66% inhibition)”. Also, in the assay with MV-4-11 cells (setting [1]), the IC50 was found to be 23.7 nM.

Turning to `CCc1cc(-c2ccc(C(=O)NCc3cccnc3)cn2)ccc1N(C)C(C)=O` [Compound I-605, 6-[4-[Acetyl(methyl)amino]-3-ethyl-phenyl]-N-(3-pyridylmethyl)pyridine-3-carboxamide], at NAMPT, the “NAMPT Inhibition Code” value was “B (B = ≥33 to <66% inhibition)”. For the same compound, in the assay with MV-4-11 cells (setting [1]), the IC50 was found to be 351 nM.

In the case of `COC(=O)c1cc(-c2ccc(C(=O)NCc3cccnc3)cn2)ccc1N(C)C(C)=O` [Compound I-662, Methyl 2-[acetyl(methyl)amino]-5-[5-(3-pyridylmethylcarbamoyl)-2-pyridyl]benzoate], the “NAMPT Inhibition Code” value on NAMPT was “C (C = ≥66% inhibition)”. Besides, the 50% inhibitory concentration (IC50) in the assay with MV-4-11 cells (setting [1]) was 36 nM.

Consider `CC(=O)N(c1ccc(-c2ccc(C(=O)NCc3cccnc3)cn2)cc1C)C(C)C` [Compound I-495, 6-[4-[Acetyl(isopropyl)amino]-3-methyl-phenyl]-N-(3-pyridylmethyl)pyridine-3-carboxamide], for which the “NAMPT Inhibition Code” value on NAMPT is recorded as “C (C = ≥66% inhibition)”. The half-maximal inhibitory concentration (IC50) in the assay with MV-4-11 cells (setting [1]) is 10.7 nM.

With `Cc1cc(-c2ccc(C(=O)NCc3cccnc3C)cn2)ccc1N(C)C(=O)CC#N` [Compound I-492, 6-[4-[(2-cyanoacetyl)-methyl-amino]-3-methyl-phenyl]-N-[(2-methyl-3-pyridyl)methyl]pyridine-3-carboxamide], the “NAMPT Inhibition Code” value on NAMPT is given as “A (A = <33% inhibition)”. Further, the IC50 in the assay with MV-4-11 cells (setting [1]) came to 6770 nM.

For the compound `CCC(=O)N(C)c1ccc(-c2ccc(C(=O)NCc3cccnc3C)cn2)cc1` [Compound I-392, 6-[4-[methyl(propanoyl)amino]phenyl]-N-[(2-methyl-3-pyridyl)methyl]pyridine-3-carboxamide], the “NAMPT Inhibition Code” value at NAMPT is “A (A = <33% inhibition)”. The 50% inhibitory concentration (IC50) in the assay with MV-4-11 cells (setting [2]) was 6230 nM.

With `CC(=O)N(CC1CC1)c1ccc(-c2ccc(C(=O)NCc3ccc(N)nc3)cn2)cc1Cl` [Compound I-677, 6-[4-[Acetyl(cyclopropylmethyl)amino]-3-chloro-phenyl]-N-[(6-amino-3-pyridyl)methyl]pyridine-3-carboxamide], the “NAMPT Inhibition Code” value at NAMPT was “C (C = ≥66% inhibition)”. In addition, in the assay on MV-4-11 cells (setting [1]), the IC50 stood at 2.91 nM.

In the case of `CC(=O)N(CCNC(=O)OC(C)(C)C)c1ccc(-c2ccc(C(=O)NCc3cccnc3)cn2)cc1` [Compound I-448, tert-butyl N-[2-[N-acetyl-4-[5-(3-pyridylmethylcarbamoyl)-2-pyridyl]anilino]ethyl]carbamate], the “NAMPT Inhibition Code” value on NAMPT is listed as “A (A = <33% inhibition)”. For the same compound, in the assay on MV-4-11 cells (setting [2]), the 50% inhibitory concentration (IC50) came to 691 nM.

Consider `CCC(=O)N(C)c1ccc(-c2ccc(C(=O)NCc3ccc(C)nc3)cn2)cc1C` [Compound I-450], for which the “NAMPT Inhibition Code” value at NAMPT is reported as “B (B = ≥33 to <66% inhibition)”. Further, the 50% inhibitory concentration (IC50) with MV-4-11 cells (setting [1]) came to 7630 nM.

For the compound `CC(=O)N(CC1CC1)c1ccc(-c2ccc(C(=O)NCc3ccc(C)nc3)cn2)cc1Cl` [Compound I-697, 6-[4-[Acetyl(cyclopropylmethyl)amino]-3-chloro-phenyl]-N-[(6-methyl-3-pyridyl)methyl]pyridine-3-carboxamide], the “NAMPT Inhibition Code” value at NAMPT is on record as “C (C = ≥66% inhibition)”.

For the compound `CC(=O)N(CC1CC1)c1ccc(-c2ccc(C(=O)NCc3ccccn3)cn2)cc1Cl` [Compound I-698, 6-[4-[Acetyl(cyclopropylmethyl)amino]-3-chloro-phenyl]-N-(2-pyridylmethyl)pyridine-3-carboxamide], the “NAMPT Inhibition Code” value on NAMPT is listed as “A (A = <33% inhibition)”.

In the case of `CC(=O)N(C)c1ccc(-c2ccc(C(=O)NCc3cccnc3C)cn2)cc1C` [Compound I-428, 6-[4-[acetyl(methyl)amino]-3-methyl-phenyl]-N-[(2-methyl-3-pyridyl)methyl]pyridine-3-carboxamide], in the assay on MV-4-11 cells (setting [2]), the 50% inhibitory concentration (IC50) worked out at 3460 nM.

For the compound `CC(=O)N(C)Cc1ccc(-c2ccc(C(=O)NCc3cccnc3)nc2)cc1` [Compound I-319, 5-[4-[[acetyl(methyl)amino]methyl]phenyl]-N-(3-pyridylmethyl)pyridine-2-carboxamide], the half-inhibitory concentration (IC50) in the assay on MV-4-11 cells (setting [2]) is 10000 nM.

On to `CC(=O)N(CC1CC1)c1ccc(-c2ccc(C(=O)NCc3ccc(F)nc3)cn2)cc1Cl` [Compound I-696, 6-[4-[Acetyl(cyclopropylmethyl)amino]-3-chloro-phenyl]-N-[(6-fluoro-3-pyridyl)methyl]pyridine-3-carboxamide], for which the “NAMPT Inhibition Code” value on NAMPT is given as “C (C = ≥66% inhibition)”.

On to `CCN(C(C)=O)c1ccc(-c2ccc(C(=O)NCc3cccnc3C)cn2)cc1C` [Compound I-429, 6-[4-[acetyl(ethyl)amino]-3-methyl-phenyl]-N-[(2-methyl-3-pyridyl)methyl]pyridine-3-carboxamide], for which, in the assay with MV-4-11 cells (setting [2]), the concentration for half-maximal inhibition (IC50) is 4030 nM.

For `CC(=O)N(C)c1ccc(-c2ccc(C(=O)NCc3cccnc3F)cn2)cc1C` [Compound I-436, 6-[4-[acetyl(methyl)amino]-3-methyl-phenyl]-N-[(2-fluoro-3-pyridyl)methyl]pyridine-3-carboxamide], in the assay on MV-4-11 cells (setting [2]), the IC50 came out at 13800 nM.
